For the assay, the target named is AtHCT (Arabidopsis thaliana, UniProt Q9FI78). The assay is described as follows: X-ray crystal structure. The format is binding.
Chain of AtHCT (Q9FI78 whole entry): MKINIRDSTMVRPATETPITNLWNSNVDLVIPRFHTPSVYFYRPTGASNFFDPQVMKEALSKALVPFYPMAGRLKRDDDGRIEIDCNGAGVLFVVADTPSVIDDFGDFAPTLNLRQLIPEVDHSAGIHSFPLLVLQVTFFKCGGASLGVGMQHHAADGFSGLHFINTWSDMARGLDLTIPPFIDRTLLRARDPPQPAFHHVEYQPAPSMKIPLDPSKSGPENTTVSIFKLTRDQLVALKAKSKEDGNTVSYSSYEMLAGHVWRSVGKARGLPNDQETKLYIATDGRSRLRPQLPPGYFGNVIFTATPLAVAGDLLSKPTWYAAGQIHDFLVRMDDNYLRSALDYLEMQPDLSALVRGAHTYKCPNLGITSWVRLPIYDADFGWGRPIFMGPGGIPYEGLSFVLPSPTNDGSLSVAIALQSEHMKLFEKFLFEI

Take `CC(C)(COP(=O)(O)OP(=O)(O)OC[C@H]1O[C@@H](n2cnc3c(N)ncnc32)[C@H](O)[C@@H]1OP(=O)(O)O)[C@@H](O)C(=O)NCCC(=O)NCCSC(=O)/C=C/c1ccc(O)cc1` [p-coumaroyl CoA]: the “X-ray crystal structure (soaked crystal)” value (soaked with p-coumaroyl CoA in water) is “apo-, p-coumaroyl CoA-bound, and p-coumaroyl shikimate-bound AtHCT”.
In the case of `O=C(/C=C/c1ccc(O)cc1)O[C@@H]1CC(C(=O)O)=C[C@@H](O)[C@H]1O` [p-coumaroylshikimate], under “acyl acceptor site, soaked with p-coumaroylshikimate in DMSO”, the “X-ray crystal structure (soaked crystal)” value is “apo-, p-coumaroyl CoA-bound, and p-coumaroyl shikimate-bound AtHCT”.

For the origin of these results see PMC6276119 (Biochemistry, 2016).
